Laboratory results taken from paper PMC4367188 (ACS Chemical Neuroscience, 2015).

Experiments:
[1] = target: Sigma σ1 (Homo sapiens, UniProt Q99720); assay: Lead Profiling Screen radioligand binding
[2] = target: norepinephrine transporter (NET) (Homo sapiens, UniProt P23975); assay: [3H]NE uptake in HEK293 hNET cells; format: cell-based; details: transfected HEK 293 cells
[3] = target: Melatonin MT1 (Homo sapiens, UniProt P48039); assay: Lead Profiling Screen radioligand binding
[4] = tested on: Glutamate, Kainate; assay: Lead Profiling Screen radioligand binding; details: 10 μM ML352
[5] = target: Cannabinoid CB1 (Homo sapiens, UniProt P21554); assay: Lead Profiling Screen radioligand binding
[6] = target: Glucocorticoid (Homo sapiens, UniProt P04150); assay: Lead Profiling Screen radioligand binding
[7] = target: Adrenergic β2 (Homo sapiens, UniProt P07550); assay: Lead Profiling Screen radioligand binding
[8] = target: Sertonin (5-Hydroxytrptamine) 5-HT3 (Homo sapiens, UniProt P46098); assay: Lead Profiling Screen radioligand binding
Sertonin (5-Hydroxytrptamine) 5-HT3, sequence (P46098 24-478): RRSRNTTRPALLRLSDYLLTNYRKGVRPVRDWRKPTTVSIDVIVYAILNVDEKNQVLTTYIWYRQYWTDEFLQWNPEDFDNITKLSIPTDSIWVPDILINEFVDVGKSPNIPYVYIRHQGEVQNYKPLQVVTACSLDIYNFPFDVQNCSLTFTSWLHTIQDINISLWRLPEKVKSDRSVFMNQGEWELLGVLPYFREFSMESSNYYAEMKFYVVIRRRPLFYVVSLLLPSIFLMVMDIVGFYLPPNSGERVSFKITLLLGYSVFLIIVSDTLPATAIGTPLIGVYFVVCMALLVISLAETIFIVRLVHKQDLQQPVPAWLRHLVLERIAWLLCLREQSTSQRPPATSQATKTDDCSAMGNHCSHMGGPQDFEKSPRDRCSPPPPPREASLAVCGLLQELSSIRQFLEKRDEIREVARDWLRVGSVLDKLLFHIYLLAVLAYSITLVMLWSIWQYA

Adrenergic β2, sequence (P07550 whole entry): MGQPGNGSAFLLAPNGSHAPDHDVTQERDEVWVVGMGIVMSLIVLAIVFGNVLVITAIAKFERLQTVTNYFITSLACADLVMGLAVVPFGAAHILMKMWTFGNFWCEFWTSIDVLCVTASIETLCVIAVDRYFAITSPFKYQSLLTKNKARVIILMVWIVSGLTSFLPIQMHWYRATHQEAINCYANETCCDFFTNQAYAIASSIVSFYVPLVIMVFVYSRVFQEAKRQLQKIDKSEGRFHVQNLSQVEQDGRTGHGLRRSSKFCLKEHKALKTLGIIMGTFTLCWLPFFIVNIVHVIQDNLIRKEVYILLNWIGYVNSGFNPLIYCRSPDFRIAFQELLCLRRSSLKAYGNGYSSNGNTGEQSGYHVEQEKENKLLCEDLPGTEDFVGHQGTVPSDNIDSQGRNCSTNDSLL
Cannabinoid CB1, sequence (P21554 whole entry): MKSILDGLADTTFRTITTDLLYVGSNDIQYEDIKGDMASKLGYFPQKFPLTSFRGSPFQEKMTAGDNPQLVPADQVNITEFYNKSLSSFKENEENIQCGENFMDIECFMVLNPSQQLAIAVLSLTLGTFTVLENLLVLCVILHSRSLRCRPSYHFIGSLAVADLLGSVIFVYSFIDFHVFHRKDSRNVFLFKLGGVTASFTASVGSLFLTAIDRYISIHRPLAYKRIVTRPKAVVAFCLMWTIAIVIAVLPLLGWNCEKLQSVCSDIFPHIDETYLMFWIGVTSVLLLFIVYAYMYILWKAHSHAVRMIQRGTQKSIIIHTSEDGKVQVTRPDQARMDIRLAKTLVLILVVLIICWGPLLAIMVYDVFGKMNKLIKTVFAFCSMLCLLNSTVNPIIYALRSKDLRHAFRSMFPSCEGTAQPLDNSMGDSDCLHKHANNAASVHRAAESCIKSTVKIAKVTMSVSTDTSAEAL
Glucocorticoid, sequence (P04150 whole entry): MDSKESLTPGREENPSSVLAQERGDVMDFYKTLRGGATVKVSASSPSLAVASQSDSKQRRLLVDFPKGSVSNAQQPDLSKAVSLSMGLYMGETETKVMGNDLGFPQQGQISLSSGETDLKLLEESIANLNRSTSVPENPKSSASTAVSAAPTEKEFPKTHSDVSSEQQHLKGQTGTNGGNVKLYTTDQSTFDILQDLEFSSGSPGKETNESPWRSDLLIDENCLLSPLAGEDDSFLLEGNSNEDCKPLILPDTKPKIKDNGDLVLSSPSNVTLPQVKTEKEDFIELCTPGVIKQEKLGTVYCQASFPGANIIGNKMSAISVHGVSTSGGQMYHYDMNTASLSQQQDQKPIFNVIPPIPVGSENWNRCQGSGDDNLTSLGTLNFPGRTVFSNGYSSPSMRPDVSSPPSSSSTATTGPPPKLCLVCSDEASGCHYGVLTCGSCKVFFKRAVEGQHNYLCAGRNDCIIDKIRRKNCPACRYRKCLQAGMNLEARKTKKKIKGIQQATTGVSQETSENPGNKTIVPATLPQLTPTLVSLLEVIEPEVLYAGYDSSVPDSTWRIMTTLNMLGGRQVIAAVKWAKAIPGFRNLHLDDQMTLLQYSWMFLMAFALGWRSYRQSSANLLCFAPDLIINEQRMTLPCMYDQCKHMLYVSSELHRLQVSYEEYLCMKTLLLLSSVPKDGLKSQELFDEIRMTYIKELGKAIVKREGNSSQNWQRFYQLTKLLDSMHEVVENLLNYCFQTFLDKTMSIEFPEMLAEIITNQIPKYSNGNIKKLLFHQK
norepinephrine transporter (NET), sequence (P23975 whole entry): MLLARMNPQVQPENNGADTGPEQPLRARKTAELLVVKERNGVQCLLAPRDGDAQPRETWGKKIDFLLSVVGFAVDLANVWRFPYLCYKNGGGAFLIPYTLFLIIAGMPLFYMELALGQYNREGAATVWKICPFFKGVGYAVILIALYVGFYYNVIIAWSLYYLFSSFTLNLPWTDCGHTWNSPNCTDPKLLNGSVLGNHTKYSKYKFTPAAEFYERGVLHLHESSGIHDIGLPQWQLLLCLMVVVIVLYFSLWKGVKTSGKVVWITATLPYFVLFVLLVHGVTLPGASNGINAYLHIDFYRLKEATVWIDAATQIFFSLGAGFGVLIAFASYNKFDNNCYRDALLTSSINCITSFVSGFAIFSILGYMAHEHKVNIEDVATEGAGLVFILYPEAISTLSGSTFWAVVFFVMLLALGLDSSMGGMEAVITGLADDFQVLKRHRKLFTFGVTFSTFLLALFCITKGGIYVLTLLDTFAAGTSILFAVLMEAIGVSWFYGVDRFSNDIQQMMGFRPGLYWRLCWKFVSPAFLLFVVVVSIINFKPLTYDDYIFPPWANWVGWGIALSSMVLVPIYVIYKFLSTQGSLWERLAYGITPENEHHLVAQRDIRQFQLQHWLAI
Sigma σ1, sequence (Q99720 whole entry): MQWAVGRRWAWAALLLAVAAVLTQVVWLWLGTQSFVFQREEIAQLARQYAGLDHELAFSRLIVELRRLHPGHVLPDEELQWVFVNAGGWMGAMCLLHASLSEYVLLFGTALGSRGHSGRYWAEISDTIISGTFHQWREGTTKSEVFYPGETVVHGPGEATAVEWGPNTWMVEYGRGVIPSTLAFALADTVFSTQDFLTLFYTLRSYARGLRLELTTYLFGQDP
Melatonin MT1, sequence (P48039 whole entry): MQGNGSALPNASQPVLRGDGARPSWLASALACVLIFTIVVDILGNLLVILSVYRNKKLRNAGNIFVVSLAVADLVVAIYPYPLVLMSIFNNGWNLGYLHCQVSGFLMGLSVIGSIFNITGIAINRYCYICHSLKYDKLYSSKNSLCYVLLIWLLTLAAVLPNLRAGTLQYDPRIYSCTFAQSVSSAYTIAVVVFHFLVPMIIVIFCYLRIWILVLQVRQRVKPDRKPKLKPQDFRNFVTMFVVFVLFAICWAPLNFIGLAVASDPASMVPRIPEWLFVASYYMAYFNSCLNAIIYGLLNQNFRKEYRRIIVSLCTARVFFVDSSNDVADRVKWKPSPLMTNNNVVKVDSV

For COc1ccc(C(=O)NCc2cc(C(C)C)no2)cc1OC1CCN(C)CC1 [ML352, N-((3-isopropylisoxazol-5-yl)methyl)-4-methoxy-3-((1-methylpiperidin-4-yl)oxy)benzamide], the inhibition at 10 µM [1] was -1%, the “inhibitory activity at NET” value [2] was “lack of inhibitory activity” and the inhibition at 10 µM [3] was 5%. The “% inhibition” value [4] was “–2%”, the inhibition at 10 µM [5] was 4% and the inhibition at 10 µM [6] was -1%. The inhibition at 10 µM [7] was 43% and the inhibition at 10 µM [8] was 2%.
